Patent US20200068890A1 (Person to Whom the Inventor is Obligated to Assign, priority 2017, published 2020)
pIC50: −log10 of the molar value.

system: T1, A. thaliana DHDPS; test: DHDPS-DHDPR coupled assay, dose response inhibitor assay; type: biochemical, Arabidopsis thaliana
T1 construct: AtDHDPS|10|0.00008; no borders, domain or tags given
Procedure: DHDPS enzyme activity was determined using the coupled assay in a Cary 4000 UV/Vis spectrophotometer at 340 nm in 1 cm acrylic cuvettes. A master mix was prepared for each reaction as per Table 1. Reaction mixtures containing enzymes, pyruvate, buffer and NADPH were incubated at 30° C. for 12 mins before the addition of ASA to initiate the reaction. The oxidation of NADPH to NADP^+ was then monitored at 340 nm at 30° C. as a function of time. The initial rate (ΔA340·min^−1) was calculated from the slope of the linear portion of the A340 versus time profile. All experiments were carried out in triplicate. The enzyme kinetic parameters, including KM values, were determined using the Michaelis-Menten equation (Equation 1). Unless otherwise stated, all kinetic data were fitted using the built-in equations in GraphPad Prism.
To determine/C50 values for the inhibitors, A. thaliana DHDPS enzyme activity was measured using the coupled assay (detailed above) in the presence of increasing concentrations of inhibitor. The initial rate was then plotted as a function of the log 10 of the inhibitor concentration and the/C50 determined according to Equation 2.

Compound | pIC50
O=C(O)CN1C(=O)S/C(=C\c2cc([N+](=O)[O-])ccc2O)C1=O [Compound 15, (Z)-2-(5-(2-Hydroxy-5-nitrobenzylidene)-2,4-dioxothiazolidin-3-yl)acetic Acid] | 3.82
COc1ccc(/C=C2\NC(=S)N(CC(=O)O)C2=O)cc1 [Compound 44, (Z)-2-(4-(4-Methoxybenzylidene)-5-oxo-2-thioxoimidazolidin-1-yl)acetic Acid] | 3.65
COc1ccc(/C=C2\SC(=O)N(CC(=O)O)C2=O)cc1OC [Compound 23, 2-(5-(3,4-Dimethoxybenzylidene)-2,4-dioxothiazolidin-3-yl)acetic Acid] | 3.94
Nc1ccc(/C=C2\SC(=O)N(CC(=O)O)C2=O)cc1 [Compound 11, (Z)-2-(5-(4-Aminobenzylidene)-2,4-dioxothiazolidin-3-yl)acetic Acid] | 3.82
COc1ccc(/C=C2\SC(=O)N(CC(=O)O)C2=O)cn1 [Compound 37, (Z)-2-(5-((6-Methoxypyridin-3-yl)methylene)-2,4-dioxothiazolidin-3-yl)acetic Acid] | 4.34
O=C(O)CN1C(=O)S/C(=C\c2ccc(C(=O)O)cc2)C1=O [Compound 25, (Z)-4-((3-(Carboxymethyl)-2,4-dioxothiazolidin-5-ylidene)methyl)benzoic Acid] | 4.16
O=C(O)CN1C(=O)S/C(=C\c2ccccc2Cl)C1=O [Compound 6, (Z)-2-(5-(2-Chlorobenzylidene)-2,4-dioxothiazolidin-3-yl)acetic Acid] | 3.86
O=C(O)CN1C(=O)S/C(=C\c2ccc(O)c(Cl)c2)C1=O [Compound 13, (Z)-2-(5-(3-Chloro-4-hydroxybenzylidene)-2,4-dioxothiazolidin-3-yl)acetic Acid] | 3.50
COc1cccc(/C=C2\SC(=O)N(CC(=O)O)C2=O)c1OC [Compound 22, 2-(5-(2,3-Dimethoxybenzylidene)-2,4-dioxothiazolidin-3-yl) acetic Acid] | 3.97
O=C(O)CN1C(=O)S/C(=C\c2ccncc2)C1=O [Compound 36, (Z)-2-(2,4-Dioxo-5-(pyridin-4-ylmethylene)thiazolidin-3-yl)acetic Acid] | 4.04
COc1ccc(/C=C2\SC(=O)N(Cc3nnn[nH]3)C2=O)cc1 [Compound 49, (Z)-3-((1H-Tetrazol-5-yl)methyl)-5-(4-methoxybenzylidene)thiazolidine-2,4-dione] | 4.05
N#Cc1ccc(/C=C2\SC(=O)N(CC(=O)O)C2=O)cc1 [Compound 24, (Z)-2-(5-(4-Cyanobenzylidene)-2,4-dioxothiazolidin-3-yl)acetic Acid] | 4.10
O=C(O)CN1C(=O)S/C(=C\c2ccc(O)cc2O)C1=O [Compound 21, 2-(5-(2,4-Dihydroxybenzylidene)-2,4-dioxothiazolidin-3-yl)acetic Acid] | 3.79
O=C(O)CN1C(=O)S/C(=C\c2ccsc2)C1=O [Compound 31, (Z)-2-(2,4-Dioxo-5-(thiophen-3-ylmethylene)thiazolidin-3-yl)acetic Acid] | 4.09
Cc1ccc(/C=C2\SC(=O)N(CC(=O)O)C2=O)cc1 [Compound 10, (Z)-2-(5-(4-Methylbenzylidene)-2,4-dioxothiazolidin-3-yl)acetic Acid] | 4.10
CSc1ccc(/C=C2\SC(=O)N(CC(=O)O)C2=O)cc1 [Compound 28, (Z)-2-(5-(4-(Methylthio)benzylidene)-2,4-dioxothiazolidin-3-yl)acetic Acid] | 3.90
COc1ccc(/C=C2\SC(=S)N(CC(=O)O)C2=O)cc1 [Compound 43, (Z)-2-(5-(4-Methoxybenzylidene)-4-oxo-2-thioxothiazolidin-3-yl)acetic Acid] | 3.27
COc1ccc(/C=C2\SC(=S)NC2=O)cc1 [Compound 46, (Z)-5-(4-Methoxybenzylidene)-2-thioxothiazolidin-4-one] | < 3.60
O=C1NC(=O)/C(=C/c2ccccc2O)S1 [Compound 19, (Z)-5-(2-Hydroxybenzylidene)thiazolidine-2,4-dione] | 3.90
CCOc1ccc(/C=C2\SC(=O)N(CC(=O)O)C2=O)cc1 [Compound 26, (Z)-2-(5-(4-Ethoxybenzylidene)-2,4-dioxothiazolidin-3-yl)acetic Acid] | 4.15
O=C(O)CN1C(=O)S/C(=C\c2ccc3ccccc3n2)C1=O [Compound 40, 2-(2,4-Dioxo-5-(quinolin-2-ylmethylene)thiazolidin-3-yl)acetic Acid] | 3.96
O=C(O)CN1C(=O)S/C(=C\c2ccccn2)C1=O [Compound 34, (Z)-2-(2,4-Dioxo-5-(pyridin-2-ylmethylene)thiazolidin-3-yl)acetic Acid] | 4.09
O=C(O)CN1C(=O)S/C(=C\c2cccc3ccccc23)C1=O [Compound 38, (Z)-2-(5-(Naphthalen-1-ylmethylene)-2,4-dioxothiazolidin-3-yl)acetic Acid] | 4.01

Compound | pIC50
COc1cccc(/C=C2\SC(=O)N(CC(=O)O)C2=O)c1 [Compound 4, (Z)-2-(5-(3-Methoxybenzylidene)-2,4-dioxothiazolidin-3-yl)acetic Acid] | 3.96
O=C(O)CN1C(=O)S/C(=C\c2cccnc2)C1=O [Compound 35, (Z)-2-(2,4-Dioxo-5-(pyridin-3-ylmethylene)thiazolidin-3-yl)acetic Acid] | 3.86
CN(C)c1ccc(/C=C2\SC(=O)N(CC(=O)O)C2=O)cc1 [Compound 33, (Z)-2-(5-(4-(Dimethylamino)benzylidene)-2,4-dioxothiazolidin-3-yl)acetic Acid] | < 3.30
O=C(O)CN1C(=O)S/C(=C\c2cccc(Cl)c2)C1=O [Compound 7, (Z)-2-(5-(3-Chlorobenzylidene)-2,4-dioxothiazolidin-3-yl)acetic Acid] | 3.92
COc1ccc(CC2SC(=O)N(CC(=O)O)C2=O)cc1 (stereo not shown) [Compound 52] | < 3.60
COc1ccc(/C=C2\SC(=N)NC2=O)cc1 [Compound 48, (Z)-2-Imino-5-(4-methoxybenzylidene)thiazolidin-4-one] | 3.81
O=C(O)CN1C(=O)S/C(=C\c2cccs2)C1=O [Compound 30, (Z)-2-(2,4-Dioxo-5-(thiophen-2-ylmethylene)thiazolidin-3-yl)acetic Acid] | 4.15
O=C(O)CN1C(=O)S/C(=C\c2ccc(C(F)(F)F)cc2)C1=O [Compound 29, (Z)-2-(2,4-Dioxo-5-(4-(trifluoromethyl)benzylidene)thiazolidin-3-yl)acetic Acid] | 3.91
O=C(O)CN1C(=O)S/C(=C\c2ccc(Br)cc2)C1=O [Compound 9, (Z)-2-(5-(4-Bromobenzylidene)-2,4-dioxothiazolidin-3-yl)acetic Acid] | 4.13
COc1ccc(/C=C2\SC(=O)N(CC(=O)O)C2=O)c(OC)c1 [Compound 17, (Z)-2-(5-(2,4-Dimethoxybenzylidene)-2,4-dioxothiazolidin-3-yl)acetic Acid] | 3.76
O=C(O)CN1C(=O)S/C(=C\c2c[nH]cn2)C1=O [Compound 32, (Z)-2-(5-((1H-Imidazol-4-yl)methylene)-2,4-dioxothiazolidin-3-yl)acetic Acid] | 4.03
O=C(O)CN1C(=O)S/C(=C\c2ccc(OC(F)(F)F)cc2)C1=O [Compound 27, (Z)-2-(2,4-Dioxo-5-(4-(trifluoromethoxy)benzylidene)thiazolidin-3-yl)acetic Acid] | 4.01
COc1ccc(/C=C2\NC(=S)NC2=O)cc1 [Compound 47, (Z)-5-(4-Methoxybenzylidene)-2-thioxoimidazolidin-4-one] | 3.49
COc1cccc(/C=C2\SC(=O)N(CC(=O)O)C2=O)c1O [Compound 16, (Z)-2-(5-(2-Hydroxy-3-methoxybenzylidene)-2,4-dioxothiazolidin-3-yl)acetic Acid] | 3.90
O=C(O)CN1C(=O)S/C(=C\c2ccc(O)cc2)C1=O [Compound 12, (Z)-2-(5-(4-Hydroxybenzylidene)-2,4-dioxothiazolidin-3-yl)acetic Acid] | 3.99
O=C(O)CN1C(=O)S/C(=C\c2ccccc2O)C1=O [Compound 14, (Z)-2-(5-(2-Hydroxybenzylidene)-2,4-dioxothiazolidin-3-yl)acetic Acid] | 4.10
O=C(O)CN1C(=O)S/C(=C\c2ccc3ccccc3c2)C1=O [Compound 39, (Z)-2-(5-(Naphthalen-2-ylmethylene)-2,4-dioxothiazolidin-3-yl)acetic Acid] | 4.12
COc1ccc(/C=C2\SC(=O)NC2=O)cc1 [Compound 45, (Z)-5-(4-Methoxybenzylidene)thiazolidine-2,4-dione] | 4.15
O=C(O)CN1C(=O)S/C(=C\c2ccc(OCc3ccccc3)cc2)C1=O [Compound 41] | 4.15
COc1ccc(/C=C2\SC(=O)N(CCCC(=O)O)C2=O)cc1 [Compound 51, (Z)-4-(5-(4-Methoxybenzylidene)-2,4-dioxothiazolidin-3-yl)butanoic Acid] | 4.18
O=C(O)CN1C(=O)S/C(=C\c2ccc(Cl)cc2)C1=O [Compound 8, (Z)-2-(5-(4-Chlorobenzylidene)-2,4-dioxothiazolidin-3-yl)acetic Acid] | 4.07
COc1ccc(/C=C2\SC(=O)N(CCC(=O)O)C2=O)cc1 [Compound 50, (Z)-3-(5-(4-Methoxybenzylidene)-2,4-dioxothiazolidin-3-yl)propanoic Acid] | < 3.60
CC(=O)Nc1ccc(/C=C2\SC(=O)N(CC(=O)O)C2=O)cc1 [Compound 20, (Z)-2-(5-(4-Acetamidobenzylidene)-2,4-dioxothiazolidin-3-yl)acetic Acid] | 4.16
